{"source": "paper PMC4452638", "about": "“Synthesis and preclinical evaluation of DOTAGA-conjugated PSMA ligands for functional imaging and endoradiotherapy of prostate cancer” (EJNMMI Research, 2014)", "key": {"[1]": {"test_system": "PSMA-expressing LNCaP cells", "experiment": "Internalization studies / cell binding in LNCaP cells", "format": "cell-based, human", "conditions": "68Ga compounds, c = 0.2 nM, 37°C, 1 h, 125,000 cells/well, corrected for unspecific binding", "procedure": "Cell culture: PSMA^+ LNCaP cells (CLS: 300265) were grown in DMEM/Nutrition Mix F-12 with Glutamax-I (1:1) (Invitrogen, Life Technologies, Darmstadt, Germany) supplemented with 10% FCS. Cultures were maintained at 37°C in a 5% CO2/humidified air atmosphere. One day prior to the experiment, cells were harvested using Trypsin/EDTA (0.05% and 0.02%) in PBS, centrifuged and resuspended with culture medium. For cell counting, a Countesse automated cell counter (Invitrogen, Carlsbad, USA) was used. All in vitro binding and internalization studies were performed using live cells seeded 1 day prior to the experiment. For IC50 determination, 150,000 cells/mL were transferred to 24-well plates (1 mL/well), and for internalization studies, 125,000 cells/mL were transferred into PLL-coated 24-well plates.\nInternalization studies: The culture medium was removed, and the cells were washed once with 500 μL DMEM-F12 (5% BSA) before being left to equilibrate in 200 μL DMEM-F12 (5% BSA) at 37°C for a minimum of 15 min. Then, 25 μL (per well) of either DMEM-F12 (5% BSA) or of a 100-μM PMPA solution (blocking) was added, followed by the addition of 25 μL of ^68Ga/^177Lu-labelled PSMA ligand. The final radioligand concentration was 0.2/0.5 nM in all internalization assays. To determine internalization kinetics, cells were then incubated at 37°C for 5, 15, 30 and 60 min, respectively. Experiments were carried out in triplicate for each time point (control and blocking). Incubation was terminated by placing the plate on ice for approximately 1 min and by subsequent removal of the incubation medium. Cells were thoroughly rinsed with 250 μL of PBS. The wash medium was combined with the supernatant of the previous step. This fraction represents the amount of free radioligand. To remove receptor surface bound radioactivity, the cells were then incubated for 10 min with 250 μL of ice cold PMPA solution (10 μM in PBS). After removal of the supernatant, the cells were thoroughly rinsed with another 250 μL of ice cold PBS. Both fractions were combined. The internalized activity was released by incubation with 250 μL of 1 N NaOH, transferred to vials and combined with 250 μL of 1 N NaOH used for rinsing the wells. Quantification of the amount of free, PMPA-releasable and internalized activity was performed in a γ-counter.\nThe cellular uptake and internalization kinetics of the different ^68Ga- and ^177Lu-labelled PSMA ligands was determined using PSMA-expressing LNCaP cells. In the case of the ^68Ga-labelled compounds, the final peptide concentration in the assays was 0.2 nM. […] All internalization studies were accompanied by reference studies using ([^125I]I-BA)KuE (c = 0.2 nM). This experimental setup allows data normalization and eliminates the influence of cell count and cell viability on absolute cellular tracer uptake. […] Furthermore, to be able to discriminate between total cellular activity (sum of membrane associated and internalized activity) and internalized activity, all incubations were followed by a washing step with 10 μM PMPA at 4°C to remove specifically cell-surface bound radioligand by displacement."}, "[2]": {"experiment": "In vivo metabolite analysis by radio-HPLC", "conditions": "CD-1 nu/nu mice, 0.5 h p.i.", "procedure": "^177Lu-10 and ^177Lu-11 were incubated in 80 μL of human serum (37°C) and 80 μL 0.4 M DTPA solution (RT), respectively and after 1, 24 and 48 h, the stability was determined by TLC analysis. The ^68Ga-labelled tracers (40 to 45 MBq) were injected into the tail vein of CD-1 nu/nu mice. The animals were sacrificed after 30 min, and urine, blood and kidney samples were taken. The kidney was frozen in liquid nitrogen, homogenized with a ball mill and extracted with 0.2 to 1 mL PBS containing 200 nmol 2-(phosphonomethyl)pentane-1,5-dioic acid (PMPA). The suspension was first centrifuged (15,000 g), and after ultrafiltration, the extracts were analysed by RP-HPLC. The blood samples were centrifuged to separate the plasma from the blood cells. Plasma proteins were removed by precipitation with acetonitrile (10 min, 4°C) and subsequent centrifugation and ultrafiltration. The blood extract was also analysed by RP-HPLC.\nTo investigate the influence of the amino acid composition of the spacer (KFF vs kff) on the metabolic stability in vivo, tissue homogenates and body fluids of mice injected with ^68Ga-11 and ^68Ga-12 were analysed by radio-HPLC. Extraction efficiencies from the blood and from the kidney were 56% and 43% for ^68Ga-11 and 61% and 62% for ^68Ga-12, respectively."}, "[3]": {"experiment": "Determination of lipophilicity (shake flask, n-octanol/PBS)", "format": "physicochemical", "conditions": "n-octanol/PBS; listed for 11/12 but determined for the FFK analogue 11 only (footnote a)", "procedure": "To a solution of 0.5 to 1 MBq of radiolabelled peptide in 500 μl of phosphate-buffered saline (PBS, pH 7.4), 500 μl of n-octanol was added (n = 6). Vials were vortexed vigorously for 3 min. To achieve quantitative phase separation, the vials were centrifuged at 6,000 g for 5 min in a Biofuge 15 (Heraeus Sepatech, Osterode, Germany). The activity concentrations in 100 μl-samples of both the aqueous and the organic phase were measured in a γ-counter. Both the partition coefficient P(o/w), which is defined as the molar concentration ratio of a single species A between n-octanol and water at equilibrium, and logP(o/w), which is an important parameter used to characterize lipophilicity of a compound, were calculated.\nThe partition coefficient logP between n-octanol and PBS was determined for the compounds listed in Table 3 using the shake flask method. All compounds are highly hydrophilic, with the DOTAGA compounds being up to one order of magnitude more hydrophilic than the corresponding DOTA analogues. Amongst all compounds tested, [^68Ga]HBED-CC-Ahx-KuE was the most hydrophilic compound."}, "LNCaP tumour xenograft": {"test_system": "LNCaP tumour xenograft", "experiment": "Biodistribution in LNCaP-tumour-bearing mice", "format": "in vivo", "conditions": "LNCaP-tumour bearing CD-1 nu/nu mice, 1 h p.i.", "procedure": "All animal experiments were conducted in accordance with general animal welfare regulations in Germany (Deutsches Tierschutzgesetz, approval #55.2-1-54-2532-71-13). The prostate cancer cell line LNCaP was suspended 1/1 in serum-free medium and Matrigel (BD Biosciences, Germany) and approximately 10^7 cells in 200 μL were inoculated subcutaneously on the right shoulder of 6 to 8 weeks old CD-1 nu/nu mice (Charles River Laboratories). Tumours were grown for 2 to 4 weeks (males) and 4 to 6 weeks (females) to reach 4 to 8 mm in diameter.\nBiodistribution: The ^68Ga-labelled PSMA ligands (approximately 7 to 15 MBq, 0.1 to 0.2 nmol) were injected into the tail vein of isoflurane anesthetized animals. The organ distribution was examined 1 h p.i. and quantified in a γ-counter.\nA comparison of the biodistribution of compounds ^68Ga-11, ^68Ga-12 and the reference [^68Ga]HBED-CC-Ahx-KuE in LNCaP-tumour-bearing CD-1 nu/nu mice (1 h p.i.) is shown in Figure 7."}}, "data": [{"substance": "[^68Ga]DOTAGA-ffk(Sub-KuE) [^68Ga-12]", "values": [{"measurement": "Internalization (1 h) in % of ([125I]I-BA)KuE", "setting": "[1]", "result": "42.5 ± 1.7", "unit": "%"}, {"measurement": "Intact tracer in blood", "setting": "[2]", "result": 100, "unit": "%"}, {"measurement": "log P (o/w)", "setting": "[3]", "result": "−3.6 ± 0.1"}, {"measurement": "Kidney accumulation", "setting": "LNCaP tumour xenograft", "result": "96 ± 45", "unit": "% ID/g"}, {"measurement": "Tracer uptake into liver", "setting": "LNCaP tumour xenograft", "result": "0.2 ± 0.04", "unit": "% ID/g"}, {"measurement": "Tracer uptake into lung", "setting": "LNCaP tumour xenograft", "result": "1.1 ± 0.3", "unit": "% ID/g"}, {"measurement": "Tracer uptake into pancreas", "setting": "LNCaP tumour xenograft", "result": "0.4 ± 0.1", "unit": "% ID/g"}, {"measurement": "Tracer uptake into spleen", "setting": "LNCaP tumour xenograft", "result": "5.5 ± 0.2", "unit": "% ID/g"}, {"measurement": "Tumour-to-blood ratio", "setting": "LNCaP tumour xenograft", "result": "17.0 ± 0.5"}, {"measurement": "Tumour-to-skeletal muscle ratio", "setting": "LNCaP tumour xenograft", "result": "19.8 ± 0.7"}, {"measurement": "Uptake in gastrointestinal tract", "setting": "LNCaP tumour xenograft", "result": "< 0.5", "unit": "% ID/g"}, {"measurement": "Uptake into LNCaP tumour xenograft", "setting": "LNCaP tumour xenograft", "result": "5.2 ± 1.2", "unit": "% ID/g"}]}]}
